The target of one assay is soluble human BACE1 catalytic domain (Homo sapiens (Human), UniProt P56817). Nature of the assay: BACE1 HTRF FRET Assay. In kind it is biochemical. The following applies: Ki calculated from IC50 using the Cheng-Prusoff equation. An excerpt: A homogeneous time-resolved FRET assay can be used to determine IC50 values for inhibitors of the soluble human BACE1 catalytic domain. This assay monitors the increase of 620 nm fluorescence that resulted from BACE1 cleavage of an APPswedish APP^swe mutant peptide FRET substrate (QSY7-[…]-Europium-amide). This substrate contains an N-terminal QSY7 moiety that serves as a quencher of the C-terminal Europium fluorophore (620 nm Em). In the absence of enzyme activity, 620 nm fluorescence is low in the assay and increased linearly over 3 hours in the presence of uninhibited BACE1 enzyme Inhibition of BACE1 cleavage of the QSY7-APP^swe-Eu substrate by inhibitors is manifested as a suppression of 620 nm fluorescence.
soluble human BACE1 catalytic domain, sequence (P56817 75-416): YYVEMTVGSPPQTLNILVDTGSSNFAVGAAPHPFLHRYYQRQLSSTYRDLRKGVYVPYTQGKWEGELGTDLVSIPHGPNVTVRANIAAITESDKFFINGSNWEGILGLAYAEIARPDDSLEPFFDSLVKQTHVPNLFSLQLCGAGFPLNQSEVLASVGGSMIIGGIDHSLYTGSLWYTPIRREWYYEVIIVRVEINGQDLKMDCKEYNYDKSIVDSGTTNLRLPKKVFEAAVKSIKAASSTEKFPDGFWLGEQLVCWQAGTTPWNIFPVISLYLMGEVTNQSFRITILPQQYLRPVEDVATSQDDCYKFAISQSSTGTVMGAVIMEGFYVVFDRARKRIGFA
Reactions are initiated by addition of 10 μl of 600 nM QSY7-APP^swe-Eu substrate (200 nM final) to give a final reaction volume of 30 μl in a 384 well Nunc HTRF plate. The reactions are incubated at 30° C. for 1.5 hours. The 620 nm fluorescence is then read on a Rubystar HTRF plate reader (BMG Labtechnologies) using a 50 millisecond delay followed by a 400 millisecond acquisition time window Inhibitor IC50 values are derived from non-linear regression analysis of concentration response curves.
Broadly, the Ki is the dissociation constant of the complex between target and ligand, obtained from inhibition or displacement. Turning to `C[C@@]1(c2cc(NC(=O)c3ccc(OC(F)(F)F)cn3)ccc2F)CS(=O)(=O)[C@]2(CCOC2)C(=N)N1` [Example 81aa], the Ki was 304 nM.

On to `C[C@@]1(c2cc(NC(=O)C(F)F)ccc2F)CS(=O)(=O)[C@]2(CCOC2)C(=N)N1` [Example 81n], for which the Ki is 639 nM.

Take `C[C@@]1(c2cc(NC(=O)CC(F)(F)F)ccc2F)CS(=O)(=O)[C@]2(CCOC2)C(=N)N1` [Example 81r]: the inhibitory constant (Ki) is 3170 nM.

In the case of `COc1cncc(-c2cc(Cl)c([C@]3(C)CS(=O)(=O)C4(CCOCC4)C(=N)N3)s2)c1` [Example 53], the Ki was 555 nM.

As for `C[C@@]1(c2cc(NC(=O)c3ncc(Cl)cc3C#N)ccc2F)CS(=O)(=O)[C@]2(CCOC2)C(=N)N1` [Example 81ag], the inhibition constant (Ki) is 5.7 nM.

On to `Cn1ccc(NC(=O)c2cc(Cl)c([C@]3(C)CS(=O)(=O)C4(CCCCC4)C(=N)N3)s2)n1` [Example 80j], for which the inhibition constant (Ki) was 2010 nM.

Consider `CC(=O)Nc1ccc(F)c([C@]2(C)CS(=O)(=O)[C@]3(CCOC3)C(=N)N2)c1` [Example 81x], for which the Ki was 1520 nM.

Turning to `C[C@@]1(c2sc(C(=O)NCc3ccncn3)cc2Cl)CS(=O)(=O)C2(CCCCC2)C(=N)N1` [Example 80c], the Ki was 4150 nM.

As for `Cc1cncc(NC(=O)c2cc(Cl)c([C@]3(C)CS(=O)(=O)C4(CCCCC4)C(=N)N3)s2)c1` [Example 80g], the Ki is 2160 nM.

On to `Cc1ccc(C(=O)Nc2ccc(F)c([C@]3(C)CS(=O)(=O)[C@]4(CCOC4)C(=N)N3)c2)nc1` [Example 81y], for which the Ki was 41 nM.

Regarding `C[C@@]1(c2cc(NC(=O)c3ncc(Cl)cc3Cl)ccc2F)CS(=O)(=O)C2(CCCC2)C(=N)N1` [Example 18], the inhibition constant (Ki) is 2.7 nM.

As to `CCc1cccc(NC(=O)c2cc(Cl)c([C@]3(C)CS(=O)(=O)C4(CCCCC4)C(=N)N3)s2)n1` [Example 80m], the inhibitory constant (Ki) was 717 nM.

Turning to `C[C@@]1(c2sc(-c3ccnc(-c4ccoc4)c3)cc2Cl)CS(=O)(=O)[C@@]2(CCOC2)C(=N)N1` [Example 63l], the Ki is 674 nM.

For the compound `C[C@@]1(c2cc(NC(=O)[C@H]3CCCO3)ccc2F)CS(=O)(=O)[C@]2(CCOC2)C(=N)N1` [Example 81j], the inhibitory constant (Ki) was 1400 nM.

As to `C[C@@]1(c2cc(-n3cc(-c4cccnc4)nn3)ccc2F)CS(=O)(=O)C2(CCC2)C(=N)N1` [Example 39b], the Ki was 8560 nM.

Turning to `CC(F)(F)C(=O)Nc1ccc(F)c([C@]2(C)CS(=O)(=O)[C@]3(CCOC3)C(=N)N2)c1` [Example 81ad], the Ki is 313 nM.

Take `C[C@@]1(c2sc(-c3cccc(N4CCCC4)c3)cc2Cl)CS(=O)(=O)C2(CCOCC2)C(=N)N1` [Example 56]: the inhibition constant (Ki) is 5740 nM.

`C[C@@]1(c2cc(NC(=O)c3ccc(Cl)cc3)ccc2F)CS(=O)(=O)[C@]2(CCOC2)C(=N)N1` [Example 81m]: the Ki is 82 nM.

In the case of `C[C@@]1(c2sc(-c3cncnc3)cc2Cl)CS(=O)(=O)C2(CCC2)C(=N)N1` [Example 60], the Ki is 374 nM.

Regarding `Cc1cc2cccc(NC(=O)c3cc(Cl)c([C@]4(C)CS(=O)(=O)C5(CCCCC5)C(=N)N4)s3)c2o1` [Example 80i], the Ki is 6050 nM.

With `C[C@@]1(c2cc(NC(=O)C3CC3(F)F)ccc2F)CS(=O)(=O)[C@]2(CCOC2)C(=N)N1` (stereo partly drawn) [Example 81s], the inhibition constant Ki is 1250 nM.

Consider `C[C@@]1(c2cc(NC(=O)c3ncc(Cl)cc3Cl)ccc2F)CS(=O)(=O)C2(CCOCC2)C(=N)N1` [Example 31], for which the inhibition constant Ki was 4.1 nM.

`C[C@@]1(c2cc(-c3cncc(Cl)c3)ccc2F)CS(=O)(=O)C2(CCCC2)C(=N)N1` [Example 37]: the inhibition constant Ki was 459 nM.

For the compound `C[C@@]1(c2sc(C(=O)NCc3ccc(F)cc3)cc2Cl)CS(=O)(=O)C2(CCCCC2)C(=N)N1` [Example 80e], the Ki is 588 nM.

Take `C[C@@]1(c2sc(-c3cncc(F)c3)cc2Cl)CS(=O)(=O)C2(CCOCC2)C(=N)N1` [Example 55]: the Ki was 260 nM.

Consider `CC(C)(O)c1cncc(-c2cc(Cl)c([C@]3(C)CS(=O)(=O)[C@]4(CCOC4)C(=N)N3)s2)c1` [Example 62m], for which the Ki is 2420 nM.

As to `C[C@@]1(c2cc(NC(=O)c3ncc(F)cc3F)ccc2F)CS(=O)(=O)[C@]2(CCOC2)C(=N)N1` [Example 81k], the Ki was 26 nM.

`C[C@@]1(c2cc(NC(=O)C3CCC3)ccc2F)CS(=O)(=O)[C@]2(CCOC2)C(=N)N1` [Example 81f]: the Ki is 2080 nM.

Turning to `CC1(C(=O)Nc2ccc(F)c([C@]3(C)CS(=O)(=O)[C@]4(CCOC4)C(=N)N3)c2)CC1` [Example 81e], the Ki is 998 nM.

With `C[C@@]1(c2sc(C(=O)NCc3ccsn3)cc2Cl)CS(=O)(=O)C2(CCCCC2)C(=N)N1` [Example 80k], the Ki was 121 nM.

As for `C[C@@]1(c2cc(NC(=O)C3CCC3(F)F)ccc2F)CS(=O)(=O)[C@]2(CCOC2)C(=N)N1` (stereo partly drawn) [Example 81o], the Ki was 3710 nM.

As for `C[C@@]1(c2cc(-c3cccc(C#N)c3)ccc2F)CS(=O)(=O)C2(CCCC2)C(=N)N1` [Example 36], the Ki is 1290 nM.

Turning to `CC1(C(=O)Nc2ccc(F)c([C@]3(C)CS(=O)(=O)[C@]4(CCOC4)C(=N)N3)c2)COC1` [Example 81p], the inhibition constant Ki was 4180 nM.

Take `C[C@@]1(c2cc(-n3cc(-c4ccccc4)nn3)ccc2F)CS(=O)(=O)C2(CCC2)C(=N)N1` [Example 39a]: the Ki was 2320 nM.

Consider `C[C@@]1(c2sc(-c3cncnc3)cc2Cl)CS(=O)(=O)C2(CCCCC2)C(=N)N1` [Example 47], for which the Ki is 545 nM.

As to `C[C@@]1(c2sc(C(=O)NCc3cnn4ccccc34)cc2Cl)CS(=O)(=O)C2(CCCCC2)C(=N)N1` [Example 80b], the Ki was 41 nM.

As for `C[C@@]1(c2sc(-c3ccnc(-c4cccs4)c3)cc2Cl)CS(=O)(=O)[C@@]2(CCOC2)C(=N)N1` [Example 63m], the Ki is 986 nM.

Turning to `C[C@@]1(c2cc(NC(=O)c3cncs3)ccc2F)CS(=O)(=O)[C@]2(CCOC2)C(=N)N1` [Example 81t], the inhibition constant (Ki) is 1940 nM.

Consider `C[C@@]1(c2sc(C(=O)NCc3cnsn3)cc2Cl)CS(=O)(=O)C2(CCCCC2)C(=N)N1` [Example 80a], for which the inhibition constant Ki was 144 nM.

`COc1cccc(NC(=O)c2cc(Cl)c([C@]3(C)CS(=O)(=O)C4(CCCCC4)C(=N)N3)s2)n1` [Example 80l]: the Ki is 207 nM.

Regarding `C[C@@]1(c2cc(NC(=O)C3CC3)ccc2F)CS(=O)(=O)[C@]2(CCOC2)C(=N)N1` [Example 81], the inhibitory constant (Ki) was 5170 nM.

As to `C[C@@]1(c2cc(NC(=O)c3ccc(S(C)(=O)=O)cn3)ccc2F)CS(=O)(=O)[C@]2(CCOC2)C(=N)N1` [Example 81z], the Ki was 3170 nM.

Regarding `C[C@@]1(c2cc(NC(=O)CC3CC3)ccc2F)CS(=O)(=O)[C@]2(CCOC2)C(=N)N1` [Example 81g], the Ki is 2960 nM.

Turning to `C[C@@]1(c2sc(-c3cccc(-c4nnco4)c3)cc2Cl)CS(=O)(=O)C2(CCCC2)C(=N)N1` [Example 43a], the Ki was 37 nM.

In the case of `C[C@@]1(c2cc(NC(=O)C3CCO3)ccc2F)CS(=O)(=O)[C@]2(CCOC2)C(=N)N1` (stereo partly drawn) [Example 81d], the Ki was 488 nM.

`C[C@@]1(c2cc(NC(=O)c3cscn3)ccc2F)CS(=O)(=O)[C@]2(CCOC2)C(=N)N1` [Example 81u]: the Ki was 433 nM.

As for `COCC(=O)Nc1ccc(F)c([C@]2(C)CS(=O)(=O)[C@]3(CCOC3)C(=N)N2)c1` [Example 81w], the inhibitory constant (Ki) is 429 nM.

Staying with this assay, now noted: read-out: BACE1 % Inh. at 10 μM.
Regarding `C[C@@]1(c2cc(NC(=O)C3CCOCC3)ccc2F)CS(=O)(=O)[C@]2(CCOC2)C(=N)N1` [Example 81q], the inhibition at 10 µM was 15%.

The record behind these values is patent US9181236B2, “2-spiro-substituted iminothiazines and their mono-and dioxides as bace inhibitors, compositions and their use” (Merck Sharp & Dohme Corp., priority 2011, dated 2015).
